From PMC3070799 (Neuropharmacology, 2011)

Experiments:
mouse 5-HT3A = target: T1, mouse 5-HT3A (Mus musculus, UniProt P23979); test: Granisetron competition binding
T1 construct: expressed in transfected cells
T1 sequence (P23979 24-483 isoform P23979-2 limits assumed): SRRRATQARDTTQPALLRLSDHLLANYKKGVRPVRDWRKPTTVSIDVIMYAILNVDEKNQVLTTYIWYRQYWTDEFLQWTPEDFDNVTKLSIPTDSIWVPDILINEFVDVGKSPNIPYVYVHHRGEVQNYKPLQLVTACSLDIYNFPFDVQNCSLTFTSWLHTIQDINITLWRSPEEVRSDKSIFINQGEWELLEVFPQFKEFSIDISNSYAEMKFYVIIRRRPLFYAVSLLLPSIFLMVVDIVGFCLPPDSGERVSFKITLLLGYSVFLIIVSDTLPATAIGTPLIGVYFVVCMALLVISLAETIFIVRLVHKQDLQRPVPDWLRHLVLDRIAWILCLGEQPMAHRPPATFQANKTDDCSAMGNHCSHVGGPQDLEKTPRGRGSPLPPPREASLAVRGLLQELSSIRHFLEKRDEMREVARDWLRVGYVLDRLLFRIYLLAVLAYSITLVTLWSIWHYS
Method: (§1) Competition binding (8 point) was performed on at least three separate plates of transfected cells. […] Reactions were incubated for at least 1 h at 4 °C and terminated by vacuum filtration using a Brandel cell harvester onto GF/B filters pre-soaked in 0.3% polyethyleneimine. Radioactivity was determined by scintillation counting using a Beckman BCLS6500 (Fullerton, California, USA). Data were analysed by iterative curve fitting (GraphPad Prism v3.02) according to the equation:(5) BL=Bmin+Bmax−Bmin/1+10^nH(logL50−logL) where L is the concentration of ligand present; BL is the binding in the presence of ligand concentration L; Bmin is the binding when L = 0; Bmax is the binding when L = ∞, L50 is the concentration of L which gives a binding equal to (Bmax + Bmin)/2; and nH is the Hill coefficient. Results are presented as mean ± S.E.M.. Statistical analysis was performed using ANOVA in conjunction with a Dunnett’s post-hoc test.

mouse 5-HT3AB = target: T2, mouse 5-HT3AB (Mus musculus, UniProt P23979+Q9JHJ5); test: Granisetron competition binding
T2 construct: expressed in transfected cells
T2 sequence (P23979 24-483 isoform P23979-2 limits assumed): T1 sequence (P23979 24-483 isoform P23979-2 limits assumed)
T2 sequence (Q9JHJ5 22-437): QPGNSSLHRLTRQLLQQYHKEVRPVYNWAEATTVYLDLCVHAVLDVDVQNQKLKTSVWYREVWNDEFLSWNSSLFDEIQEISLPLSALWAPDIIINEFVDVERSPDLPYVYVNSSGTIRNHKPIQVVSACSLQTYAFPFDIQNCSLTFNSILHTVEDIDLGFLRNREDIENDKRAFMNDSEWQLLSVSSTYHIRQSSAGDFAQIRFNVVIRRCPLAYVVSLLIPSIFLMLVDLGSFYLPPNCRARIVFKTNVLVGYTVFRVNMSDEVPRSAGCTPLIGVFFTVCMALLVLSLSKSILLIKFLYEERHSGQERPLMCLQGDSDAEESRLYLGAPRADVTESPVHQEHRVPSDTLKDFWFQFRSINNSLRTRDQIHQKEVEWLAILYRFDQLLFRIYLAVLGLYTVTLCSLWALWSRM
Method: as §1

| Compound | Displacement of granisetron (0.5 nM) (mouse 5-HT3A; compound 2.5 mM) | Displacement of granisetron (0.5 nM) (mouse 5-HT3AB; compound 2.5 mM) | Displacement of granisetron (0.5 nM) (mouse 5-HT3A; compound 5 mM) | Displacement of granisetron (0.5 nM) (mouse 5-HT3AB; compound 5 mM) |
| --- | --- | --- | --- | --- |
| CC(C)(C)[C@]1(O)CC2OC(=O)CC23C(=O)OC2OC(=O)[C@H](O)C231 (stereo partly drawn) [BB, bilobalide] | not displaced | not displaced |  |  |
| C=C(C)[C@@H]1[C@H]2OC(=O)[C@@H]1[C@]1(O)C[C@H]3O[C@]34C(=O)O[C@H]2[C@]14C [PXN, picrotoxinin] |  |  | not displaced | not displaced |
| ginkgolide B [GB] | not displaced | not displaced |  |  |
